The values below come from patent US20070213312A1, “Hif-1 Inhibitors and Methods of Use Thereof” (priority 2003, published 2007).

Residues, ends and D or L forms follow the SMILES beside them. *: point of attachment. Cbz = O=C(OCc1ccccc1)*

Assay [1] has as its system HIF-1α. The settings on record: LNCaP cells, ambient O2; cited from earlier work.
Assay [2] concerns HIF-1α. Description: HIF-1α detection in cells exposed to DBM plus metals (summary statements). The class given is cell-based, human. The conditions noted are these: cells exposed to DBM plus the metal; HEK 293 and HT144 for Zn^2+. The source says: In subsequent studies, similar data has been found for HEK 293 human embryonic kidney cells and HT144 melanoma cells treated with either DBM or Zn^2+. […] This finding appears to be unique to the combination of DBM with Zn^2+ since it was not observed in cells exposed to DBM plus other metals such as Fe^3+, Co^2+, Cd^2+, and Ni^2+. Furthermore, this unexpected reversal of the independent effects of DBM and Zn^2+ was not blocked by hypoxia. These observations are counterintuitive since inhibitors of HIF P4H should impede degradation of HIF-1α. Also, these two HIF P4H inhibitors appear to work in concert under inhibitory conditions to down-regulate HIF-1α with little effect on HIF-1α mRNA levels.
Basal levels of HIF-1α are low in cells exposed to ambient oxygen, yet under these conditions both DBM and Zn^2+ stabilize HIF-1α and cause the accumulation of HIF-1α protein (FIG. 15). It has been shown that this stabilizing effect on HIF-1α was itself reversed by the concomitant addition of Zn^2+ to DBM under ambient oxygen. […] This destabilizing effect appears unique to the combination of DBM plus Zn^2+ since it was not observed with other metals known to form chelates with DBM such as Fe^3+, Co^2+, Cd^2+ and Ni^2+. […] Though assessment of downstream effectors of HIF-1α (e.g., VEGF) was not included in the preliminary data, the effects of DBM and cobalt on VEGF in LNCaP human prostate cancer cells have been previously reported.

The test system of assay [3] is VEGF. The conditions noted are these: LNCaP cells, ambient O2; cited from earlier work.
For assay [4], the system named is HIF-1α. Description: Western blot analysis of HIF-1α in HT144 melanoma cells under hypoxia (1% O2). The assay is classed as cell-based, human. The settings on record: for HIF-1α levels by Western blot: HT 144 melanoma cells, 2 hours under 1% O2. The method, then: (§1) HT 144 melanoma cells (FIG. 16 (A)) and HEK 293 embryonic kidney cells (FIG. 16 (B)) were incubated for 2 hours under 1% O2. HIF-1α was detected by Western blot at baseline ([…] lane 1).
For orientation: Immunoblotting shows a protein as a band on a membrane.

Assay [5] relates to HIF-1α. Description: Western blot analysis of HIF-1α in HEK 293 cells under hypoxia (1% O2). The class given is cell-based, human. The settings on record: 2 hours under 1% O2, metal added together with DBM. The method, then:
as §1

Assay [6] deals with kidney cancer. The settings on record: patients with metastatic disease, high doses; cited from earlier work.
The subject of assay [7] is HIF-1αZ. The conditions noted are these: cited from earlier work.
In assay [8] the test system is HIF-1α mRNA. In words: Semiquantitative PCR (RT-PCR) of HIF-1α mRNA in HEK 293 cells under normoxia. The class given is cell-based, human. The settings on record: HEK 293, normoxia, 2 hours, serum free media. The method, then: The effects of DBM alone, Zn^2+ alone and DBM plus Zn^2+ on HIF-1α mRNA levels were assessed by semiquantitative PCR in extracts of HEK 293 kidney cells under normoxia for 2 hours in serum free media (FIG. 17). […] HIF-1αZ mRNA levels were not found to be increased (data not shown).

Assay [9] concerns HIF-1α. In words: Western blot analysis of HIF-1α in HEK 293 cells under ambient oxygen (normoxia). The class given is cell-based, human. The conditions noted are these: HEK 293, ambient oxygen; for HIF-1α levels by Western blot: 1 hr, DBM 100 μM, Zn^2+ 25 μM to 100 μM, alone or combined; for HIF-1α by Western blot: agent(s) without further addition; for HIF-1α by Western blot in the presence of proteosome inhibitor MG-132: MG-132 added to the agent(s). The method, then:
The first unexpected finding was that the combination of DBM plus Zn^2+ reversed the induced stabilization of HIF-1α observed when the cells were exposed to either DBM or Zn^2+ alone under normoxic conditions (FIG. 15). […] HIF-1α was not detected at baseline by Western blot (FIG. 15, lane 1).
Proteosomal degradation of HIF-1α was assessed in HEK 293 embryonic kidney cells treated with DBM alone, Zn^2+ alone or the combination under ambient oxygen in the presence or absence of the proteosome inhibitor MG-132 (FIG. 18). […] (FIG. 18, lane 5). […] The HIF-1α isoforms are more clearly resolved on the gel from FIG. 18 than FIG. 15. This may be due to differences in the time the gels were run.

In assay [10] the test system is HIF-1α. In words: Western blot analysis of HIF-1α in VHL (−/−) RCC-4 renal cell carcinoma cells under normoxia. The settings on record: RCC-4 VHL (−/−), normoxic conditions; MG-132 for 1 hour. The class given is cell-based, human. The source says:
As expected, HIF-1α was detected by Western blot under normoxic conditions (FIG. 19, lane 1). […] These experiments have not been performed as yet in RCC4 cells with DBM alone or in RCC4 cells transfected with pVHL.

For `[Co+2]` [Co^2+, reference compound], the HIF-1α levels entry in assay [1] is “rapidly increase”. Besides, in [2], the “Loss of HIF-1α (no HIF-1α detected) when metal is combined with DBM” value (from here on “Loss of HIF-1α (no HIF-1α detected)”) is given as “not observed”. The VEGF levels entry in assay [3] is recorded as “rapidly increase”.

With `[Fe+3]` [Fe^3+], the “Effect of metal added to DBM on HIF-1α levels by Western blot” value is “did not significantly alter the effect of DBM on HIF-1α levels” in [4] (HT 144 cells, 2 hours under 1% O2, metal added together with DBM) and “decreased slower migrating isoforms of HIF-1α” in assay [5]. The “Loss of HIF-1α (no HIF-1α detected)” value in assay [2] is given as “not observed”.

Consider “bevacizumab: humanized monoclonal antibody specific for VEGF”, for which the Clinical responses result in [6] is reported as “Clinical responses have been observed”.

Consider `[Zn+2]` [Zn^2+], for which the “Zn^2+ concentration at which HIF-1αZ exhibits loss of exon 12” value in assay [7] is “above 100 μM”. Further, the “HIF-1α levels by Western blot” value in [4] is “decreased the more rapidly migrating isoforms of HIF-1α”. In addition, the “HIF-1α mRNA levels by semiquantitative PCR” value in assay [8] was “not significantly different from baseline”. Besides, in [9], the “HIF-1α levels by Western blot” value was “increased HIF-1α levels in a dose dependent manner” and the “HIF-1α by Western blot in the presence of proteosome inhibitor MG-132” value is “did not stabilize these other forms of HIF-1α”. Further, in assay [9] (2 hours), the “Molecular weight of stabilized HIF-1α isoforms” value is recorded as “higher molecular weight than those induced by DBM” and the “HIF-1α by Western blot” value is recorded as “readily detected”.

`[Cd+2]` [Cd^2+]: in [2], the “Loss of HIF-1α (no HIF-1α detected)” value was “not observed”.

On to `CC(C)C[C@@H](C=O)NC(=O)[C@H](CC(C)C)NC(=O)[C@H](CC(C)C)NC(=O)OCc1ccccc1` [MG-132, reference compound] (Cbz-Leu-Leu-Leu-aldehyde), for which the figures for the “HIF-1α by Western blot” value in [9] (2 hours) and in [10] were “accumulation of a broad range of proteins that possibly represent ubiquitinated forms of HIF-1α” and “Stabilization of HIF-1α was enhanced”, respectively.

For `[Ni+2]` [Ni^2+], the “Loss of HIF-1α (no HIF-1α detected)” value in assay [2] was “not observed”.

`O=C(CC(=O)c1ccccc1)c1ccccc1` [DBM, 1,3-diphenylpropane-1,3-dione]: the HIF-1α levels result in assay [1] is “rapidly increase”. Moreover, the “HIF-1α levels by Western blot” value in [4] is “significantly increased the levels of HIF-1α”; in assay [9] it was “significant increase in HIF-1α levels”. Besides, the “HIF-1α mRNA levels by semiquantitative PCR” value in [8] is listed as “not significantly different from baseline”. Further, the “HIF-1α by Western blot” value in [9] (2 hours) was “readily detected”. Further, the “HIF-1α by Western blot in the presence of proteosome inhibitor MG-132” value in assay [9] is “did not stabilize these other forms of HIF-1α”. Moreover, the VEGF levels result in assay [3] is “rapidly increase”.
